Reference: patent publication US10351546B2, “Pyridin-3-yl acetic acid derivatives as inhibitors of human immunodeficiency virus replication” (priority 2015, dated 2019)
Like-named read-outs stand apart in the source and are kept apart here.

Tested on: NL-RLuc virus
Test: Inhibition of HIV replication (NL-RLuc luciferase reporter virus in MT-2 cells)
Assay type: cell-based
Conditions: Human immunodeficiency virus 1, MT2, 120 h
Summary of the method: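 The read-out is Renilla luciferase expressed by replication-competent NL-RLuc (nef partly replaced), measured 5 days after infection of MT-2 cells grown with compound dilutions in 10% FBS RPMI. Median effect equation gives EC50 from ≥2 runs; A ≤100 nM, B 100 nM–1 uM, C >1 uM.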

Structure (SMILES)	EC50 (read-out: Activity) [µM]	EC50 (read-out: EC50 μM) [µM]
Cc1nc(CN(C)Cc2ccccc2)c(-c2ccc(OCCc3ccc(F)cc3)cc2)c(N2CCC(C)(C)CC2)c1[C@H](OC(C)(C)C)C(=O)O [Example 97, (S)-2-(6-((Benzyl(methyl)amino)methyl)-4-(4,4-dimethylpiperidin-1-yl)-5-(4-(4-fluorophenethoxy)phenyl)-2-methylpyridin-3-yl)-2-(tert-butoxy)acetic acid]	< 0.1	–
Cc1cc(N2CCc3cc(-c4c(N)nc(C)c([C@H](OC(C)(C)C)C(=O)O)c4N4CCC(C)(C)CC4)ccc3C2)ncn1 [Example 148, (S)-2-(6-Amino-4-(4,4-dimethylpiperidin-1-yl)-2-methyl-5-(2-(6-methylpyrimidin-4-yl)-1,2,3,4-tetrahydroisoquinolin-6-yl)pyridin-3-yl)-2-(tert-butoxy)acetic acid]	< 0.1	–
Cc1nc(CN(C)C(=O)C(=O)N(C)C)c(-c2ccc(OCCc3ccc(F)cc3)cc2)c(N2CCC(C)(C)CC2)c1[C@H](OC(C)(C)C)C(=O)O [Example 102, (S)-2-(tert-Butoxy)-2-(6-((2-(dimethylamino)-N-methyl-2-oxoacetamido)methyl)-4-(4,4-dimethylpiperidin-1-yl)-5-(4-(4-fluorophenethoxy)phenyl)-2-methylpyridin-3-yl)acetic acid]	< 0.1	–
Cc1cc(F)ccc1CN1CCc2cc(-c3c(C(C)O)nc(C)c([C@H](OC(C)(C)C)C(=O)O)c3N3CCC(C)(C)CC3)ccc2C1 (single isomer, unassigned) [Example 152]	< 0.1	–
COCc1nc(C)c([C@H](OC(C)(C)C)C(=O)O)c(N2CCC(C)(C)CC2)c1-c1ccc2c(c1)CCN(Cc1ccc(F)cc1C)C2 [Example 157, (S)-2-(tert-Butoxy)-2-(4-(4,4-dimethylpiperidin-1-yl)-5-(2-(4-fluoro-2-methylbenzyl)-1,2,3,4-tetrahydroisoquinolin-6-yl)-6-(methoxymethyl)-2-methylpyridin-3-yl)acetic acid]	< 0.1	–
Cc1ncc([C@H](OC(C)(C)C)C(=O)O)c(N2CCC(C)(C)CC2)c1-c1ccc(OCCc2ccc(F)cc2)cc1 [Example 182, (S)-2-(tert-Butoxy)-2-(4-(4,4-dimethylpiperidin-1-yl)-5-(4-(4-fluorophenethoxy)phenyl)-6-methylpyridin-3-yl)acetic acid]	< 0.1	–
Cc1nc(CNCc2ccccn2)c(-c2ccc(OCCc3ccc(F)cc3)cc2)c(N2CCC(C)(C)CC2)c1[C@H](OC(C)(C)C)C(=O)O [Example 95, (S)-2-(tert-Butoxy)-2-(4-(4,4-dimethylpiperidin-1-yl)-5-(4-(4-fluorophenethoxy)phenyl)-2-methyl-6-(((pyridin-2-ylmethyl)amino)methyl)pyridin-3-yl)acetic acid]	< 0.1	–
CC#Cc1nc(C)c([C@H](OC(C)(C)C)C(=O)O)c(N2CCC(C)(C)CC2)c1-c1ccc(OCCc2ccc(F)cc2)cc1 [Example 163, (S)-2-(tert-butoxy)-2-(4-(4,4-dimethylpiperidin-1-yl)-5-(4-(4-fluorophenethoxy)phenyl)-2-methyl-6-(prop-1-yn-1-yl)pyridin-3-yl)acetic acid]	< 0.1	–
Cc1cc(F)ccc1CN1CCc2cc(-c3c(CN4CCS(=O)(=O)CC4)nc(C)c([C@H](OC(C)(C)C)C(=O)O)c3N3CCC(C)(C)CC3)ccc2C1 [Example 123, (S)-2-(tert-Butoxy)-2-(4-(4,4-dimethylpiperidin-1-yl)-6-((1,1-dioxidothiomorpholino)methyl)-5-(2-(4-fluoro-2-methylbenzyl)-1,2,3,4-tetrahydroisoquinolin-6-yl)-2-methylpyridin-3-yl)acetic acid]	< 0.1	–
CCOCCOCc1nc(C)c(-c2ccc(OCCc3ccc(F)cc3)cc2)c(N2CCC(C)(C)CC2)c1[C@H](OC(C)(C)C)C(=O)O [Example 108, (S)-2-(tert-Butoxy)-2-(4-(4,4-dimethylpiperidin-1-yl)-2-((2-ethoxyethoxy)methyl)-5-(4-(4-fluorophenethoxy)phenyl)-6-methylpyridin-3-yl)acetic acid]	< 0.1	–
Cc1nc(CNCC2CCCCC2)c(-c2ccc(OCCc3ccc(F)cc3)cc2)c(N2CCC(C)(C)CC2)c1[C@H](OC(C)(C)C)C(=O)O [Example 99, (S)-2-(tert-Butoxy)-2-(6-(((cyclohexylmethyl)amino)methyl)-4-(4,4-dimethylpiperidin-1-yl)-5-(4-(4-fluorophenethoxy)phenyl)-2-methylpyridin-3-yl)acetic acid]	< 0.1	–
Cc1nc(CO)c([C@H](OC(C)(C)C)C(=O)O)c(N2CCC(C)(C)CC2)c1-c1ccc(OCCc2ccc(F)cc2)cc1 [Example 1, (S)-2-(tert-Butoxy)-2-(4-(4,4-dimethylpiperidin-1-yl)-5-(4-(4-fluorophenethoxy)phenyl)-2-(hydroxymethyl)-6-methylpyridin-3-yl)acetic acid]	< 0.1	0.003
Cc1cc(F)ccc1CN1CCc2cc(-c3c(CN4CCC(F)(F)CC4)nc(C)c([C@H](OC(C)(C)C)C(=O)O)c3N3CCC(C)(C)CC3)ccc2C1 [Example 128, (S)-2-(tert-Butoxy)-2-(6-((4,4-difluoropiperidin-1-yl)methyl)-4-(4,4-dimethylpiperidin-1-yl)-5-(2-(4-fluoro-2-methylbenzyl)-1,2,3,4-tetrahydroisoquinolin-6-yl)-2-methylpyridin-3-yl)acetic acid]	< 0.1	–
Cc1cc(F)ccc1CN1CCc2cc(-c3c(CN4CCOCC4)nc(C)c([C@H](OC(C)(C)C)C(=O)O)c3N3CCC(C)(C)CC3)ccc2C1 [Example 121, (S)-2-(tert-Butoxy)-2-(4-(4,4-dimethylpiperidin-1-yl)-5-(2-(4-fluoro-2-methylbenzyl)-1,2,3,4-tetrahydroisoquinolin-6-yl)-2-methyl-6-(morpholinomethyl)pyridin-3-yl)acetic acid]	< 0.1	–
Cc1cc(F)ccc1CN1CCc2cc(-c3c(CN4CCC(O)CC4)nc(C)c([C@H](OC(C)(C)C)C(=O)O)c3N3CCC(C)(C)CC3)ccc2C1 [Example 135, (S)-2-(tert-Butoxy)-2-(4-(4,4-dimethylpiperidin-1-yl)-5-(2-(4-fluoro-2-methylbenzyl)-1,2,3,4-tetrahydroisoquinolin-6-yl)-6-((4-hydroxypiperidin-1-yl)methyl)-2-methylpyridin-3-yl)acetic acid]	< 0.1	–
CC(=O)NCc1nc(C)c([C@H](OC(C)(C)C)C(=O)O)c(N2CCC(C)(C)CC2)c1-c1ccc(OCCc2ccc(F)cc2)cc1 [Example 106, (S)-2-(6-(Acetamidomethyl)-4-(4,4-dimethylpiperidin-1-yl)-5-(4-(4-fluorophenethoxy)phenyl)-2-methylpyridin-3-yl)-2-(tert-butoxy)acetic acid]	< 0.1	–
Cc1cc(F)ccc1CN1CCc2cc(-c3c(CNC(=O)C(=O)N(C)C)nc(C)c([C@H](OC(C)(C)C)C(=O)O)c3N3CCC(C)(C)CC3)ccc2C1 [Example 142, (S)-2-(tert-Butoxy)-2-(6-((2-(dimethylamino)-2-oxoacetamido)methyl)-4-(4,4-dimethylpiperidin-1-yl)-5-(2-(4-fluoro-2-methylbenzyl)-1,2,3,4-tetrahydroisoquinolin-6-yl)-2-methylpyridin-3-yl)acetic acid]	< 0.1	–
Cc1nc(CNCc2cocn2)c(-c2ccc(OCCc3ccc(F)cc3)cc2)c(N2CCC(C)(C)CC2)c1[C@H](OC(C)(C)C)C(=O)O [Example 78, (S)-2-(tert-Butoxy)-2-(4-(4,4-dimethylpiperidin-1-yl)-5-(4-(4-fluorophenethoxy)phenyl)-2-methyl-6-(((oxazol-4-ylmethyl)amino)methyl)pyridin-3-yl)acetic acid]	< 0.1	–
Cc1nc(N)c(-c2ccc(OCCc3ccc(F)cc3)cc2)c(N2CCC(C)(C)CC2)c1[C@H](OC(C)(C)C)C(=O)O [Example 46, (S)-2-(6-Amino-4-(4,4-dimethylpiperidin-1-yl)-5-(4-(4-fluorophenethoxy)phenyl)-2-methylpyridin-3-yl)-2-(tert-butoxy)acetic acid]	< 0.1	–
Cc1cc(F)ccc1CN1CCc2cc(-c3c(CN4CCSCC4)nc(C)c([C@H](OC(C)(C)C)C(=O)O)c3N3CCC(C)(C)CC3)ccc2C1 [Example 122, (S)-2-(tert-Butoxy)-2-(4-(4,4-dimethylpiperidin-1-yl)-5-(2-(4-fluoro-2-methylbenzyl)-1,2,3,4-tetrahydroisoquinolin-6-yl)-2-methyl-6-(thiomorpholinomethyl)pyridin-3-yl)acetic acid]	< 0.1	–
Cc1nc(Cl)c(-c2ccc(OCCc3ccc(F)cc3)cc2)c(N2CCC(C)(C)CC2)c1[C@H](OC(C)(C)C)C(=O)O (single isomer, unassigned) [Example 52]	< 0.1	–
Cc1nc(CN2CCC3(CCC3)CC2)c(-c2ccc(OCCc3ccc(F)cc3)cc2)c(N2CCC(C)(C)CC2)c1[C@H](OC(C)(C)C)C(=O)O [Example 82, (S)-2-(6-(7-Azaspiro[3.5]nonan-7-ylmethyl)-4-(4,4-dimethylpiperidin-1-yl)-5-(4-(4-fluorophenethoxy)phenyl)-2-methylpyridin-3-yl)-2-(tert-butoxy)acetic acid]	< 0.1	–
Cc1nc(CN2CCC(F)CC2)c(-c2ccc(OCCc3ccc(F)cc3)cc2)c(N2CCC(C)(C)CC2)c1[C@H](OC(C)(C)C)C(=O)O [Example 90, (S)-2-(tert-Butoxy)-2-(4-(4,4-dimethylpiperidin-1-yl)-5-(4-(4-fluorophenethoxy)phenyl)-6-((4-fluoropiperidin-1-yl)methyl)-2-methylpyridin-3-yl)acetic acid]	< 0.1	–
COc1ccccc1NCc1nc(C)c([C@H](OC(C)(C)C)C(=O)O)c(N2CCC(C)(C)CC2)c1-c1ccc(OCCc2ccc(F)cc2)cc1 [Example 91, (S)-2-(tert-Butoxy)-2-(4-(4,4-dimethylpiperidin-1-yl)-5-(4-(4-fluorophenethoxy)phenyl)-6-(((2-methoxyphenyl)amino)methyl)-2-methylpyridin-3-yl)acetic acid]	< 0.1	0.018
